US20250101436A1, “APTAMERS AND SMALL MOLECULE LIGANDS” (MeiraGTx UK II Limited, priority 2021, published 2025)

Test system: luciferase gene expression in HEK 293 cells in response to Comp. 004
Test: Screen of riboswitch constructs with 12C6-1 variant aptamers (libraries N1-N5) against Comp. 004, luciferase in HEK 293 cells
Assay type: cell-based, human
Conditions: library N1 (J2-4), HEK 293, 25 M [sic] Comp. 004
How it was run: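 Riboswitch constructs carrying 12C6-1 aptamer variants, randomized in J2-4, J2-3/J3-3a/J3a-2/P3, L3a, J4-5/J5-4/P4 or L5 regions (libraries N1-N5), cloned into an intron-exon-intron cassette driving luciferase. Screened in HEK 293 cells with 25 µM Comp. 004; read-out is fold induction of gene expression versus parent Luci-12C6-1.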

Row | Substance | Fold (induction of luciferase gene expression) [fold]
1 | N1_2G6 (CTGGGGAGTCCTTCATGCGGGGC; chemistry not given here) | 11.00
2 | N1_2H7 (CTGGGGAGTCCTTCATGCGGGGC; chemistry not given here) | 1.16
3 | N1_2D11 (CTGGGGAGTCCTTCATGCGGGGC; chemistry not given here) | 1.96
4 | N1_2G8 (CTGGGGAGTCCTTCATGCGGGGC; chemistry not given here) | 8.46

Same assay, conditions: library N2 variant aptamers (J2-3, P3-J3-3a, J3a-2 randomized) of 12C6-1 in riboswitch constructs; in response to Comp. 004; HEK 293 cells

Row | Substance | Fold (induction of luciferase gene expression) [fold]
5 | N2_2E7 (DNA CTGGGGAGTCCTTCATGC; chemistry not given here) | 1.1
6 | N2_2A7 (CTGGGGAGTCCTTCATGC; chemistry not given here) | 0.9
7 | N2_2F8 (DNA CTGGGGAGTCCTTCATGC; chemistry not given here) | 1.0
8 | N2_2F3 (DNA CTGGGGAGTCCTTCATGC; chemistry not given here) | 0.9
9 | N2_2E3 (DNA CTGGGGAGTCCTTCATGC; chemistry not given here) | 1.3
10 | N2_2E5 (DNA CTGGGGAGTCCTTCATGC; chemistry not given here) | 1.2
11 | N2_2D1 (CTGGGGAGTCCTTCATGC; chemistry not given here) | 1.1
12 | N2_2E2 (DNA CTGGGGAGTCCTTCATGC; chemistry not given here) | 1.1
13 | N2_2B12 (CTGGGGAGTCCTTCATGC; chemistry not given here) | 1.0
14 | N2_2C10 (CTGGGGAGTCCTTCATGC; chemistry not given here) | 1.2
15 | N2_2A12 (CTGGGGAGTCCTTCATGC; chemistry not given here) | 1.1
16 | N2_2G8 (DNA CTGGGGAGTCCTTCATGC; chemistry not given here) | 1.1
17 | N2_2F7 (DNA CTGGGGAGTCCTTCATGC; chemistry not given here) | 1.0
18 | N2_2B10 (CTGGGGAGTCCTTCATGC; chemistry not given here) | 1.1
19 | N2_2H7 (CTGGGGAGTCCTTCATGC; chemistry not given here) | 0.8
20 | N2_2D2 (DNA CTGGGGAGTCCTTCATGC; chemistry not given here) | 1.1

Same assay, conditions: library N5 variant aptamers (L5, X16-X21 randomized) of 12C6-1 in riboswitch constructs; in response to Comp. 004 treatment; HEK 293 cells

Row | Substance | Fold (induction of luciferase gene expression) [fold]
21 | N5_1B5 (CTGGGGAGTCCT; chemistry not given here) | 780.8
22 | N5_11G11 (CTGGGGAGTCCT; chemistry not given here) | 1186.4
23 | N5_1C4 (CTGGGGAGTCCT; chemistry not given here) | 665.0
24 | N5_1B8 (CTGGGGAGTCCT; chemistry not given here) | 645.1
25 | N5_7A5 (CTGGGGAGTCCT; chemistry not given here) | 785.5
26 | N5_7A10 (CTGGGGAGTCCT; chemistry not given here) | 1108.5
27 | N5_3F11 (CTGGGGAGTCCT; chemistry not given here) | 1628.3
28 | N5_7E7 (DNA CTGGGGAGTCCT; chemistry not given here) | 870.2
29 | N5_2F10 (CTGGGGAGTCCT; chemistry not given here) | 1014.6
30 | N5_13D1 (CTGGGGAGTCCT; chemistry not given here) | 722.9
31 | N5_2C5 (CTGGGGAGTCCT; chemistry not given here) | 1055.1
32 | N5_7C1 (CTGGGGAGTCCT; chemistry not given here) | 87.5
33 | N5_9E6 (DNA CTGGGGAGTCCT; chemistry not given here) | 1020.7
34 | N5_6A3 (CTGGGGAGTCCT; chemistry not given here) | 696.0
35 | N5_7A11 (CTGGGGAGTCCT; chemistry not given here) | 941.2
36 | N5_1B2 (CTGGGGAGTCCT; chemistry not given here) | 747.7
37 | N5_6G6 (CTGGGGAGTCCT; chemistry not given here) | 1004.4
38 | N5_1F1 (CTGGGGAGTCCT; chemistry not given here) | 557.2
39 | N5_1H8 (CTGGGGAGTCCT; chemistry not given here) | 622.6

Row | Substance | Fold (induction of luciferase gene expression) [fold]
40 | N5_7H9 (DNA CTGGGGAGTCCT; chemistry not given here) | 860.0
41 | N5_13G10 (CTGGGGAGTCCT; chemistry not given here) | 1604.0
42 | N5_4D7 (CTGGGGAGTCCT; chemistry not given here) | 588.1
43 | N5_2B11 (CTGGGGAGTCCT; chemistry not given here) | 1009.4
44 | N5_7E1 (DNA CTGGGGAGTCCT; chemistry not given here) | 1733.0
45 | N5_1D11 (CTGGGGAGTCCT; chemistry not given here) | 4.8
46 | N5_5D7 (CTGGGGAGTCCT; chemistry not given here) | 769.4
47 | N5_6B6 (CTGGGGAGTCCT; chemistry not given here) | 659.7
48 | N5_8C7 (DNA CTGGGGAGTCCT; chemistry not given here) | 817.6
49 | N5_13G12 (CTGGGGAGTCCT; chemistry not given here) | 1199.4
50 | N5_6H10 (CTGGGGAGTCCT; chemistry not given here) | 1466.1
51 | N5_1E1 (CTGGGGAGTCCT; chemistry not given here) | 566.4
52 | N5_1B3 (CTGGGGAGTCCT; chemistry not given here) | 792.0
53 | N5_1F12 (CTGGGGAGTCCT; chemistry not given here) | 1057.8
54 | N5_2D9 (CTGGGGAGTCCT; chemistry not given here) | 735.9
55 | N5_13C10 (CTGGGGAGTCCT; chemistry not given here) | 1144.6
56 | N5_7E11 (DNA CTGGGGAGTCCT; chemistry not given here) | 732.1
57 | N5_9B8 (DNA CTGGGGAGTCCT; chemistry not given here) | 792.8
58 | N5_8A9 (DNA CTGGGGAGTCCT; chemistry not given here) | 1090.4
